From US7932270B2 (Cytokinetics, Inc., priority 2006, dated 2011) come the findings set out here.

This assay addresses T1, chicken gizzard smooth muscle myosin subfragment-1 chemically crosslinked to cardiac or skeletal actin (Gallus gallus, UniProt P10587).
T1 construct: chicken gizzard smooth muscle myosin subfragment-1; from tissue; host or cells: chicken gizzard
Nature of the assay: Smooth muscle myosin ATPase dose response assay (pyruvate kinase/horseradish peroxidase/pyruvate oxidase-coupled, amplex red fluorescence). It is filed as biochemical. The settings on record: read-out: IC50 Arithmetic Mean. An outline of the steps:
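Inhibition is measured in a peroxidase/pyruvate oxidase-linked format at pH 7.00 and 22° C, 0.15 mM ATP final. Myosin input is titrated to a target turnover since active fraction differs between preparations.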

T1 sequence (P02607 2-151): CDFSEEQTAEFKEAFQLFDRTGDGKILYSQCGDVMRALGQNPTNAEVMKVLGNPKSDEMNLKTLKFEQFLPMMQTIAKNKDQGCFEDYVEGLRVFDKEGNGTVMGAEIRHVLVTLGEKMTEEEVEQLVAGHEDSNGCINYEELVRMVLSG
T1 sequence (P10587 84-789): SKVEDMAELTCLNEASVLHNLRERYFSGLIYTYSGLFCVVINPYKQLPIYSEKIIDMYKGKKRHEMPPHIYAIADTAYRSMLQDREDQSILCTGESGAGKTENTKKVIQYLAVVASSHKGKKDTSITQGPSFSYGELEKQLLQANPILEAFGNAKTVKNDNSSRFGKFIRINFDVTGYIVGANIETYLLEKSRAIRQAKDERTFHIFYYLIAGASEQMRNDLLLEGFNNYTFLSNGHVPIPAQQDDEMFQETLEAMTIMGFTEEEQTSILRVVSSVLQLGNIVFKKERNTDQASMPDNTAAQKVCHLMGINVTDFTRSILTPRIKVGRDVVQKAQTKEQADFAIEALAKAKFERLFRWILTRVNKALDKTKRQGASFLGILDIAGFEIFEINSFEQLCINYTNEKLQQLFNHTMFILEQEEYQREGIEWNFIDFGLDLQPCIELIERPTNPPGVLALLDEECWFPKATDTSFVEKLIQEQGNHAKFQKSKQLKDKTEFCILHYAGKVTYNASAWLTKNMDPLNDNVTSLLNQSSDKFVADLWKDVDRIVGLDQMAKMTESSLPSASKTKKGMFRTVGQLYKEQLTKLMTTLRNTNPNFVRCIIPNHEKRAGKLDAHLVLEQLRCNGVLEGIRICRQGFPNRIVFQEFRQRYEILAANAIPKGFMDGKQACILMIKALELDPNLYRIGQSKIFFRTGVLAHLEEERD

Take `N#Cc1ccccc1-c1ccc(C(=O)NCc2cccnc2NCCCN)c(NCCc2cccc(F)c2)n1` [N-({2-[(3-aminopropyl)amino](3-pyridyl)}methyl)(6-(2-cyanophenyl)-2-{[2-(3-fluorophenyl)ethyl]amino}(3-pyridyl))carboxamide]: the IC50 (usually the concentration needed to halve the response being measured) was determined as 17 nM.

Consider `CN(C)C(=NCc1cncc(CNC(=O)c2ccc(-c3ccccc3C#N)nc2NCCc2cccc(F)c2)c1)N(C)C` [N-({5-[3,3-bis(dimethylamino)-2-azaprop-2-enyl](3-pyridyl)}methyl)(6-(2-cyanophenyl)-2-{[2-(3-fluorophenyl)ethyl]amino}(3-pyridyl))carboxamide], for which the IC50 was 2720 nM.

Take `CN(C)C(=NCc1cccc(CNC(=O)c2ccc(-c3ccccc3C#N)nc2NCCc2cccc(F)c2)n1)N(C)C` [N-({6-[3,3-bis(dimethylamino)-2-azaprop-2-enyl](2-pyridyl)}methyl)(6-(2-cyanophenyl)-2-{[2-(3-fluorophenyl)ethyl]amino}(3-pyridyl))carboxamide]: the half-inhibitory concentration (IC50) stood at 285 nM.

Turning to `NCCNc1cccc(CNC(=O)c2ccc(-c3cn[nH]c3)nc2NCCc2cccc(F)c2)n1` [N-({6-[(2-aminoethyl)amino](2-pyridyl)}methyl)(2-{[2-(3-fluorophenyl)ethyl]amino}-6-pyrazol-4-yl(3-pyridyl))carboxamide], the 50% inhibitory concentration (IC50) worked out at 20 nM.

Turning to `N#Cc1ccccc1-c1ccc(C(=O)NCc2cccc(NCCN)n2)c(NCCc2cccc(F)c2)n1` [N-({6-[(2-aminoethyl)amino](2-pyridyl)}methyl)(6-(2-cyanophenyl)-2-{[2-(3-fluorophenyl)ethyl]amino}(3-pyridyl))carboxamide], the IC50 amounted to 7 nM.

As to `NCCCNc1cccc(CNC(=O)c2ccc(-c3cn[nH]c3)nc2NCCc2cccc(F)c2)n1` [N-({6-[(3-aminopropyl)amino](2-pyridyl)}methyl)(2-{[2-(3-fluorophenyl)ethyl]amino}-6-pyrazol-4-yl(3-pyridyl))carboxamide], the 50% inhibitory concentration (IC50) amounted to 18 nM.

As to `N#Cc1ccccc1-c1ccc(C(=O)NCc2cccc(NCCCN)n2)c(NCCc2cccc(F)c2)n1` [N-({6-[(3-aminopropyl)amino](2-pyridyl)}methyl)(6-(2-cyanophenyl)-2-{[2-(3-fluorophenyl)ethyl]amino}(3-pyridyl))carboxamide], the half-inhibitory concentration (IC50) was 5 nM.

As to `N#Cc1ccccc1-c1ccc(C(=O)NC[C@H]2CCC(=O)N2CCCCN2C(=O)c3ccccc3C2=O)c(NCCc2cccc(F)c2)n1` [N-({(2R)-1-[4-(1,3-dioxobenzo[c]azolin-2-yl)butyl]-5-oxopyrrolidin-2-yl}methyl)(6-(2-cyanophenyl)-2-{[2-(3-fluorophenyl)ethyl]amino}(3-pyridyl))carboxamide], the IC50 is 376 nM.

In the case of `N#Cc1ccccc1-c1ccc(C(=O)NC[C@H]2CCCC(=O)N2CCCCN2C(=O)c3ccccc3C2=O)c(NCCc2cccc(F)c2)n1` [N-({(2R)-1-[4-(1,3-dioxobenzo[c]azolin-2-yl)butyl]-6-oxo(2-piperidyl)}methyl)(6-(2-cyanophenyl)-2-{[2-(3-fluorophenyl)ethyl]amino}(3-pyridyl))carboxamide], the half-maximal inhibitory concentration (IC50) is 791 nM.

Consider `N#Cc1ccccc1-c1ccc(C(=O)NC[C@H]2CCC(=O)N2CCCCCN2C(=O)c3ccccc3C2=O)c(NCCc2cccc(F)c2)n1` [N-({(2R)-1-[5-(1,3-dioxobenzo[c]azolin-2-yl)pentyl]-5-oxopyrrolidin-2-yl}methyl)(6-(2-cyanophenyl)-2-{[2-(3-fluorophenyl)ethyl]amino}(3-pyridyl))carboxamide], for which the IC50 turned out to be 266 nM.

In the case of `N#Cc1ccccc1-c1ccc(C(=O)NC[C@H]2CCCCN2S(=O)(=O)CCN)c(NCCc2cccc(F)c2)n1` [N-({(2R)-1-[(2-aminoethyl)sulfonyl](2-piperidyl)}methyl)(6-(2-cyanophenyl)-2-{[2-(3-fluorophenyl)ethyl]amino}(3-pyridyl))carboxamide], the IC50 came out at 178 nM.

`N#Cc1ccccc1-c1ccc(C(=O)NC[C@H]2CCCN2S(=O)(=O)CCN)c(NCCc2cccc(F)c2)n1` [N-({(2R)-1-[(2-aminoethyl)sulfonyl]pyrrolidin-2-yl}methyl)(6-(2-cyanophenyl)-2-{[2-(3-fluorophenyl)ethyl]amino}(3-pyridyl))carboxamide]: the IC50 was 71 nM.

As to `N#Cc1ccccc1-c1ccc(C(=O)NC[C@H]2CCCCN2S(=O)(=O)CCCN)c(NCCc2cccc(F)c2)n1` [N-({(2R)-1-[(3-aminopropyl)sulfonyl](2-piperidyl)}methyl)(6-(2-cyanophenyl)-2-{[2-(3-fluorophenyl)ethyl]amino}(3-pyridyl))carboxamide], the IC50 came out at 370 nM.

As to `N#Cc1ccccc1-c1ccc(C(=O)NC[C@H]2CCCN2S(=O)(=O)CCCN)c(NCCc2cccc(F)c2)n1` [N-({(2R)-1-[(3-aminopropyl)sulfonyl]pyrrolidin-2-yl}methyl)(6-(2-cyanophenyl)-2-{[2-(3-fluorophenyl)ethyl]amino}(3-pyridyl))carboxamide], the IC50 is 234 nM.

Turning to `N#Cc1ccccc1-c1ccc(C(=O)NCCOCCN)c(NCCc2cccc(F)c2)n1` [N-[2-(2-aminoethoxy)ethyl](6-(2-cyanophenyl)-2-{[2-(3-fluorophenyl)ethyl]amino}(3-pyridyl))carboxamide], the half-maximal inhibitory concentration (IC50) amounted to 1620 nM.

`CC(C)(C)OC(=O)N[C@@H](CCCN)C(=O)N1CC[C@@H]1CNC(=O)c1ccc(-c2ccccc2C#N)nc1NCCc1cccc(F)c1` [N-[2-((2R)-2-([(6-(2-cyanophenyl)-2-{[2-(3-fluorophenyl)ethyl]amino}(3-pyridyl))carbonylamino]methyl}azetidinyl)(1S)-1-(3-aminopropyl)-2-oxoethyl](tert-butoxy)carboxamide]: the half-maximal inhibitory concentration (IC50) was 1350 nM.

As to `Cn1cc(-c2nc(NCCc3cccc(F)c3)c(C(=O)NC[C@H]3CCCN3C(=O)[C@H](CO)NC(=O)OC(C)(C)C)cc2F)cn1` [N-[2-((2R)-2-{[(5-fluoro-2-{[2-(3-fluorophenyl)ethyl]amino}-6-(1-methylpyrazol-4-yl)(3-pyridyl))carbonylamino]methyl}pyrrolidinyl)(1S)-1-(hydroxymethyl)-2-oxoethyl](tert-butoxy)carboxamide], the half-inhibitory concentration (IC50) turned out to be 1200 nM.

On to `C[C@H](NC(=O)OC(C)(C)C)C(=O)N1CCC[C@@H]1CNC(=O)c1cc(F)c(-c2cnn(C)c2)nc1NCCc1cccc(F)c1` [N-[2-((2R)-2-{[(5-fluoro-2-{[2-(3-fluorophenyl)ethyl]amino}-6-(1-methylpyrazol-4-yl)(3-pyridyl))carbonylamino]methyl}pyrrolidinyl)(1S)-1-methyl-2-oxoethyl](tert-butoxy)carboxamide], for which the half-inhibitory concentration (IC50) turned out to be 1950 nM.

Take `CC(C)(C)OC(=O)N[C@@H](CO)C(=O)N1CC[C@@H]1CNC(=O)c1ccc(-c2ccccc2C#N)nc1NCCc1cccc(F)c1` [N-[2-((2R)-2-{[(6-(2-cyanophenyl)-2-{[2-(3-fluorophenyl)ethyl]amino}(3-pyridyl))carbonylamino]methyl}azetidinyl)(1S)-1-(hydroxymethyl)-2-oxoethyl](tert-butoxy)carboxamide]: the concentration for half-maximal inhibition (IC50) came out at 2480 nM.

`C[C@H](NC(=O)OC(C)(C)C)C(=O)N1CCC[C@@H]1CNC(=O)c1ccc(-c2ccccc2C#N)nc1NCCc1cccc(F)c1` [N-[2-((2R)-2-{[(6-(2-cyanophenyl)-2-{[2-(3-fluorophenyl)ethyl]amino}(3-pyridyl))carbonylamino]methyl}pyrrolidinyl)(1S)-1-methyl-2-oxoethyl](tert-butoxy)carboxamide]: the concentration for half-maximal inhibition (IC50) was 3260 nM.

Consider `CN(C)CCNC(=O)c1ccc(-c2ccccc2C#N)nc1NCCc1cccc(F)c1` [N-[2-(dimethylamino)ethyl](6-(2-cyanophenyl)-2-{[2-(3-fluorophenyl)ethyl]amino}(3-pyridyl))carboxamide], for which the IC50 is 4220 nM.

Consider `CN(C)CCNC(=O)CNC(=O)c1ccc(-c2ccccc2C#N)nc1NCCc1cccc(F)c1` [N-[2-(dimethylamino)ethyl]-2-[(6-(2-cyanophenyl)-2-{[2-(3-fluorophenyl)ethyl]amino}(3-pyridyl))carbonylamino]acetamide], for which the IC50 was found to be 9310 nM.

As for `Cn1cc(-c2nc(NCCc3cccc(F)c3)c(C(=O)NC[C@H]3CCC(=O)N3CCCNC(=O)OC(C)(C)C)cc2C#N)cn1` [N-[3-((5R)-5-{[(5-cyano-2-{[2-(3-fluorophenyl)ethyl]amino}-6-(1-methylpyrazol-4-yl)(3-pyridyl))carbonylamino]methyl}-2-oxopyrrolidinyl)propyl](tert-butoxy)carboxamide], the IC50 worked out at 1150 nM.

`Cc1cc(C(=O)NC[C@H]2CCC(=O)N2CCCNC(=O)OC(C)(C)C)c(NCCc2cccc(F)c2)nc1-c1ccccc1C#N` [N-[3-((5R)-5-{[(6-(2-cyanophenyl)-2-{[2-(3-fluorophenyl)ethyl]amino}-5-methyl(3-pyridyl))carbonylamino]methyl}-2-oxopyrrolidinyl)propyl](tert-butoxy)carboxamide]: the concentration for half-maximal inhibition (IC50) was 5370 nM.

Take `CN(C)CCCNC(=O)CNC(=O)c1ccc(-c2ccccc2C#N)nc1NCCc1cccc(F)c1` [N-[3-(dimethylamino)propyl]-2-[(6-(2-cyanophenyl)-2-{[2-(3-fluorophenyl)ethyl]amino}(3-pyridyl))carbonylamino]acetamide]: the concentration for half-maximal inhibition (IC50) was 12200 nM.

Regarding `CC(=O)N1CCCC(CNC(=O)c2ccc(-c3ccccc3)nc2NCCc2ccccn2)C1` (stereo not shown) [N-[(1-acetyl(3-piperidyl))methyl]{6-phenyl-2-[(2-(2-pyridyl)ethyl)amino](3-pyridyl)}carboxamide], the concentration for half-maximal inhibition (IC50) was 48400 nM.

`CC(=O)N1CCC(CNC(=O)c2ccc(-c3ccccc3C#N)nc2NCCc2cccc(F)c2)CC1` [N-[(1-acetyl(4-piperidyl))methyl](6-(2-cyanophenyl)-2-{[2-(3-fluorophenyl)ethyl]amino}(3-pyridyl))carboxamide]: the concentration for half-maximal inhibition (IC50) turned out to be 1700 nM.

Turning to `CC(=O)N1CCC(CNC(=O)c2ccc(-c3ccccc3)nc2NCCc2ccccn2)CC1` [N-[(1-acetyl(4-piperidyl))methyl]{6-phenyl-2-[(2-(2-pyridyl)ethyl)amino](3-pyridyl)}carboxamide], the IC50 is 96700 nM.
